For one experiment, the target named is T1, PPARα (Homo sapiens, UniProt Q07869).
T1 construct: human PPARα (S167–Y468); expressed in transfected cells; host or cells: HEK293
T1 sequence (Q07869 167-468): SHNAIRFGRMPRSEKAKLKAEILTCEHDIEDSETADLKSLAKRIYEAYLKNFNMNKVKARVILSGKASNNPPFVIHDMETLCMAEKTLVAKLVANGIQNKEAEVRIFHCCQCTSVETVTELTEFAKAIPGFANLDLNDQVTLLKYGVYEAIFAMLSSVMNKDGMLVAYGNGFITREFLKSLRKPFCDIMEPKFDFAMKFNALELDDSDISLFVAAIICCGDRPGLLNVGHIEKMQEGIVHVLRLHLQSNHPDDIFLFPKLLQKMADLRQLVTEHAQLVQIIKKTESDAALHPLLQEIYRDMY
Nature of the experiment: Cell-based GAL4 transactivation assay in HEK293 cells, PPARα LBD. The settings on record: HEK293, 24 h; read-out: EC50, PPARα transcriptional activity. The text has this:
(§1) To determine the transcriptional activity of PBI-4547, a cell-based GAL4 transactivation assay in HEK293 cells transfected with either PPARα, PPARδ, or PPARγ LBD was used. […] However, PBI-4547 only partially activated PPARγ transcriptional activity, with a relative maximal efficacy of 38% of the control agonist rosiglitazone.
(§2) Generation of the Gαi2, Gαq, and GPR40/β-arrestin-2 BRET biosensors have been described previously. A plasmid encoding the human GPR120-L (long isoform) cDNA was obtained from R&D Systems. GPR120-S (short isoform) was generated by replacing the BglII-BsgI fragment from GPR120-L by a gBlock gene fragment (Integrated DNA Technologies, Coralville, IA) lacking the DNA sequence corresponding to the extra 16 amino acids found in the third intracellular loop of the long form. The GPR120-GFP10 construct was generated by inserting PCR-amplified GPR120-S (without its stop codon) in place of GPR40 in the GPR40-GFP10 plasmid. […]
(§3) HEK293 cells were co-transfected with pGL4.35[luc2P/9XGAL4UAS/Hygro] and GAL4-PPAR-Rluc plasmids, and after 24 h of incubation were treated with compounds for 24 h. Luciferase activity was determined with the Dual Glo luciferase assay (Promega). Firefly luminescence was normalized to the constitutively expressed Renilla luminescence, and results expressed as fold induction of vehicle control.

In the next experiment the target is T2, PPARδ (Homo sapiens, UniProt Q03181).
T2 construct: PPARδ (S139–Y440); expressed in transfected cells; host or cells: HEK293
T2 sequence (Q03181 139-441 limits assumed): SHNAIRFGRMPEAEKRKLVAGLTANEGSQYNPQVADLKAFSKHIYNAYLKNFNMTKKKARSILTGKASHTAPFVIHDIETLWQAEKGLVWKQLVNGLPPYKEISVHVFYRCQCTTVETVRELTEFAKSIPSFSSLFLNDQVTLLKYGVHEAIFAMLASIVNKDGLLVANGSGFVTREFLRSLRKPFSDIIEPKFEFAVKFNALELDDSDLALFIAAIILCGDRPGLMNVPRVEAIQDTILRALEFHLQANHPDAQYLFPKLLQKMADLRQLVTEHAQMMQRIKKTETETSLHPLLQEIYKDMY
The experiment can be described thus: Cell-based GAL4 transactivation assay in HEK293 cells, PPARδ LBD. As to conditions: compared to the control agonist GW0742.
Excerpt: as §1, §2, §3

A further experiment has as its system CCl4 mouse. The experiment can be described thus: Carbon tetrachloride (CCl4)-induced liver fibrosis. It counts as in vivo. From the text:
Since fibrosis contributes directly to the progression from NAFLD to NASH, we next evaluated the effect of PBI-4547 pro-fibrotic gene expression. […] Pro-inflammatory genes were not modulated by treatment with PBI-4547. […] As liver fibrosis was relatively mild in HFD-fed mice, we performed separate studies to evaluate the antifibrotic effect of PBI-4547, in rodent models of carbon tetrachloride (CCl4)- and bile duct ligation (BDL)-induced liver fibrosis.

The test system of experiment [1] is HepG2 hepatocytes. The experiment can be described thus: Mitochondrial respiration (Seahorse OCR) in HepG2 hepatocytes. It counts as cell-based. As to conditions: HepG2, 24 h treatment. The protocol: (§4) Moreover, hepatic expression of several genes involved in glucose metabolism including Pklr (pyruvate kinase L/R), G6pc (glucose-6-phosphatase, catalytic) and Slc2a2 (Glut2) was normalized by PBI-4547 (Fig. 4B). […] To test this hypothesis, mitochondrial respiration in HepG2 hepatocytes was measured (Fig. 4C). […] However, it did decrease maximal respiration and ATP production, in agreement with the metabolomics results.
(§5) Figure 4 Effects of PBI-4547 on glucose and FA metabolism in liver. (A) Relative gene expression levels of glucose and FA-related metabolism in liver from STD, HFD and HFD + PBI-4547 mice. Data are presented as geometric mean ± SEM (n ≥ 6 per group, one-way ANOVA with Dunnett’s multicomparison test vs HFD group). (B) 1H-NMR metabolic profiling in liver tissues. (C) Oxygen Consumption Rate (OCR) and Extracellular Acidifcation Rate (ECAR) in HepG2 hepatocytes. Measurements of basal respiration, maximal respiration, ATP production and proton leak in HepG2 hepatocytes treated or not with PBI-4547. (D) Oxidation rate of ^14C-palmitate in HepG2 hepatocytes treated or not with PBI-4547. Data are presented as mean ± SEM (n = 3, Student t test Ctrl vs PBI-4547). See also Fig. S2.
Oxygen consumption rate (OCR) and extracellular acidification rate (ECAR) were measured with a Seahorse XF96 as per manufacturer’s protocol (Agilent). Briefly, 8 × 10^4 HepG2 cells were plated onto Seahorse XF96 96-well plates for 24 h prior to stimulation. The next day, cells were treated with PBI-4547 or with vehicle control for 24 h. Cells were subjected to a mitochondrial stress test with serial injections of Oligomycin (1 μM; ATPase inhibitor), FCCP (1 μM; mitochondrial uncoupler) and Rotenenone/Antimycin A (1 μM; complex I/III inhibitor).

The subject of experiment [2] is HepG2 hepatocytes. The experiment can be described thus: 14C-palmitate β-oxidation rate in HepG2 hepatocytes. It counts as cell-based. The protocol: as §4, §5
The test system of a further experiment is ob/ob mice. Nature of the experiment: ob/ob leptin-deficient genetic mouse model of metabolic syndrome. It counts as in vivo. From the text: We next sought to confirm our above findings obtained from the diet-induced model of obesity by using the ob/ob leptin-deficient genetic mouse model of metabolic syndrome. […] Additionally, the mRNA expression profiles of glucose- and FA-related genes in liver (Fig. S4D,E) and WAT (Fig. S5) also differed between pioglitazone- and PBI-4547-treated mice.

The structures appear in SMILES notation.

`CCCCCc1cc(CCCCC)cc(CC(=O)[O-])c1.[Na+]` [PBI-4547, 2-[3,5-dipentylphenyl]acetate sodium salt]: the EC50 at PPARα is 42 µM. Moreover, at PPARδ, the PPARδ transcriptional activity entry was “very weak”. Moreover, in the experiment with CCl4 mouse, the liver collagen deposition entry is reported as “significantly decreased”. Also, in the experiment with HepG2 hepatocytes [1], the ATP production entry was “decrease”, the “basal oxygen consumption rate (OCR)” value is given as “did not affect”, the maximal respiration result is reported as “decrease” and the mitochondrial proton leak entry is “significantly increased”. The “oxidation of 14C-palmitate (β-oxidation rate)” value with HepG2 hepatocytes [2] is given as “dose-dependently increased”. Further, in the experiment with ob/ob mice, the bodyweight result was “significantly reduced” and the “prevention of clinical manifestations of fatty liver disease (liver histology)” value is “more effective than pioglitazone”.
